Test results: patent publication US4639459A, “Use of trifluoromethyl compounds” (priority 1985, dated 1987)

How the values were obtained:
[1] = human, in vivo; cited from earlier work
[2] = Pharmacokinetic studies comparing relative distribution in brain and plasma; conditions: rodents

For Cc1ccc(/C(=C\CN2CCCC2)c2ccccn2)cc1 [Triprolidine, (E)-1-(4-methylphenyl)-1-(2-pyridyl)-3-pyrrolidinoprop-1-ene], which sedation and drowsiness [1] is on record?
Its sedation and drowsiness is “produces sedation and drowsiness in varying degrees in most patients”.

With O=C(O)/C=C/c1cccc(/C(=C/CN2CCCC2)c2ccc(C(F)(F)F)cc2)n1 [Compound of Formula (I), (E)-3-{6-[3-Pyrrolidino-1(4-Trifluoromethylphenyl)prop-1E-enyl]-2-pyridyl}acrylic acid] as the molecule, how does the “penetration of the brain” value [2] read?
The value was “does not readily penetrate the brains of rodents”.
